What all share (type): cell-based
Assay [1] concerns Staphylococcus aureus S13E. The method, then: (§1) The antibacterial efficacy of the present compounds is illustrated by Table III. The minimal inhibitory concentrations (MICs) were determined using a standard broth micro-dilution assay.
The test system of assay [2] is Resistant Enterococcus faecium and faecalis. Nature of the assay: MIC, standard broth micro-dilution assay, Resistant. The conditions noted are these: geometric mean of 4-6 isolates. As for the experimental part: as §1
Assay [3] concerns Staphylococcus aureus 489. The assay can be described thus: MIC, standard broth micro-dilution assay, SA 489. The method, then:
as §1

The subject of assay [4] is Staphylococcus epidermidis 270. The assay can be described thus: MIC, standard broth micro-dilution assay, SE 270. The method, then: as §1
A general note: In broth dilution the organism is exposed to a series of concentrations in liquid medium.

Assay [5] deals with Enterococcus faecalis 276. Nature of the assay: MIC, standard broth micro-dilution assay, EF 276. As for the experimental part: as §1
Assay [6] has as its system Enterococcus gallinarum 245. Nature of the assay: MIC, standard broth micro-dilution assay, EG 245. As for the experimental part:
as §1

The next assay relates to Enterococcus faecium 180. The assay can be described thus: MIC, standard broth micro-dilution assay, EF 180. The method, then:
as §1

The test system of assay [7] is Staphylococcus haemolyticus 415. The assay can be described thus: MIC, standard broth micro-dilution assay, SH 415. The method, then: as §1
Assay [8] relates to Staphylococcus aureus SA1199. The assay can be described thus: MIC, standard broth micro-dilution assay, SA 1199. The method, then: as §1
In a further assay the test system is Escherichia coli EC14. The assay can be described thus: MIC, standard broth micro-dilution assay, EC 14. As for the experimental part:
as §1

The test system of assay [9] is Enterococcus faecium 180-1. The assay can be described thus: MIC, standard broth micro-dilution assay, EF 180-1. The method, then:
as §1

For assay [10], the system named is Staphylococcus aureus 447. The assay can be described thus: MIC, standard broth micro-dilution assay, SA 447. As for the experimental part: as §1
Assay [11] has as its system Sensitive Enterococcus faecium and faecalis. Nature of the assay: MIC, standard broth micro-dilution assay, Sensitive. The conditions noted are these: geometric mean of 4-6 isolates. As for the experimental part:
as §1

Assay [12] has as its system Enterococcus faecalis 2041. The assay can be described thus: MIC, standard broth micro-dilution assay, EF 2041. The method, then: as §1
Assay [13] concerns Staphylococcus aureus 446. Nature of the assay: MIC, standard broth micro-dilution assay, SA 446. As for the experimental part:
as §1

Assay [14] relates to Staphylococcus aureus X400. The assay can be described thus: MIC, standard broth micro-dilution assay, SA X400. The method, then: as §1
Assay [15] has as its system Staphylococcus haemolyticus 105. Nature of the assay: MIC, standard broth micro-dilution assay, SH 105. The method, then: as §1
Assay [16] deals with Staphylococcus aureus SA1199A. Nature of the assay: MIC, standard broth micro-dilution assay, SA 1199A. As for the experimental part:
as §1

Assay [17] relates to Staphylococcus aureus X778. The assay can be described thus: MIC, standard broth micro-dilution assay, SA X778. As for the experimental part: as §1
Assay [18] relates to Haemophilus influenzae RD. Nature of the assay: MIC, standard broth micro-dilution assay, HFRD. As for the experimental part: as §1
Assay [19] concerns Staphylococcus aureus 491. The assay can be described thus: MIC, standard broth micro-dilution assay, SA 491. As for the experimental part: as §1

The results in this text go back to patent US6670446B1, “N1 modified glycopeptides” (Eli Lilly and Company, priority 1998, dated 2003).

Take `CC1OC(OC2c3ccc(c(Cl)c3)Oc3cc4cc(c3OC3OC(CO)C(O)C(O)C3OC3CC(C)(NCc5ccc(-c6ccccc6)cc5)C(O)C(C)O3)Oc3ccc(cc3Cl)C(O)C(NC(=O)C(N)CCCCN)C(=O)NC(CC(N)=O)C(=O)NC4C(=O)NC3C(=O)NC2C(=O)NC(C(=O)O)c2cc(O)cc(O)c2-c2cc3ccc2O)CC(C)(N)C1O` [Example 31, N^1-L-lysine derivative of N^DISACC-(p-phenylbenzyl)desleucylA82846B]: in assay [1], the “minimal inhibitory concentration (MIC), SA S13E” value was found to be 1. Also, the “minimal inhibitory concentration (MIC), Resistant” value in assay [2] turned out to be 5.6. Further, in assay [3], the “minimal inhibitory concentration (MIC), SA 489” value was found to be 2. Besides, the “minimal inhibitory concentration (MIC), SE 270” value in assay [4] is 0.5. For the same compound, the “minimal inhibitory concentration (MIC), EF 276” value in [5] came out at 2. Further, the “minimal inhibitory concentration (MIC), EG 245” value in assay [6] came out at 0.5. Besides, the “minimal inhibitory concentration (MIC), EF 180” value with Enterococcus faecium 180 came out at 1. In addition, in assay [7], the “minimal inhibitory concentration (MIC), SH 415” value was determined as 2. Moreover, in assay [8], the “minimal inhibitory concentration (MIC), SA 1199” value was 0.5. Also, the “minimal inhibitory concentration (MIC), EC 14” value in the assay with Escherichia coli EC14 is listed as over 64. The “minimal inhibitory concentration (MIC), EF 180-1” value in assay [9] is listed as 0.25. Besides, the “minimal inhibitory concentration (MIC), SA 447” value in assay [10] came out at 2. In [11], the “minimal inhibitory concentration (MIC), Sensitive” value was determined as 0.33. In addition, in assay [12], the “minimal inhibitory concentration (MIC), EF 2041” value was 1. In assay [13], the “minimal inhibitory concentration (MIC), SA 446” value came to 0.5. Also, in [14], the “minimal inhibitory concentration (MIC), SA X400” value came to 2. Also, in assay [15], the “minimal inhibitory concentration (MIC), SH 105” value worked out at 0.5. For the same compound, the “minimal inhibitory concentration (MIC), SA 1199A” value in assay [16] is recorded as 0.25. For the same compound, the “minimal inhibitory concentration (MIC), SA X778” value in [17] was 0.5. The “minimal inhibitory concentration (MIC), HFRD” value in assay [18] is on record as over 64. For the same compound, the “minimal inhibitory concentration (MIC), SA 491” value in [19] is listed as 0.5.

Consider `CC1OC(OC2c3ccc(c(Cl)c3)Oc3cc4cc(c3OC3OC(CO)C(O)C(O)C3OC3CC(C)(NCc5ccc(-c6ccccc6)cc5)C(O)C(C)O3)Oc3ccc(cc3Cl)C(O)C(NC(=O)C(CCCCNC(=O)OC(C)(C)C)NC(=O)OC(C)(C)C)C(=O)NC(CC(N)=O)C(=O)NC4C(=O)NC3C(=O)NC2C(=O)NC(C(=O)O)c2cc(O)cc(O)c2-c2cc3ccc2O)CC(C)(N)C1O` [Example 19, N^1-(N^1N′-DIBOC-D-lysine) derivative of N^DISACC-(p-phenylbenzyl)desleucylA82846B], for which the “minimal inhibitory concentration (MIC), SA S13E” value in [1] came out at 2. Besides, the “minimal inhibitory concentration (MIC), Resistant” value in [2] is listed as 64. For the same compound, in [3], the “minimal inhibitory concentration (MIC), SA 489” value came out at 1. Besides, the “minimal inhibitory concentration (MIC), SE 270” value in assay [4] is recorded as 2. Besides, in [5], the “minimal inhibitory concentration (MIC), EF 276” value turned out to be 2. Besides, the “minimal inhibitory concentration (MIC), EG 245” value in assay [6] stood at 2. Also, in the assay with Enterococcus faecium 180, the “minimal inhibitory concentration (MIC), EF 180” value amounted to 8. Also, in assay [7], the “minimal inhibitory concentration (MIC), SH 415” value was 4. Further, the “minimal inhibitory concentration (MIC), SA 1199” value in assay [8] is on record as 2. For the same compound, in the assay on Escherichia coli EC14, the “minimal inhibitory concentration (MIC), EC 14” value is listed as over 64. In [9], the “minimal inhibitory concentration (MIC), EF 180-1” value worked out at 1. The “minimal inhibitory concentration (MIC), SA 447” value in assay [10] was found to be 2. For the same compound, the “minimal inhibitory concentration (MIC), Sensitive” value in [11] is recorded as 2.6. Moreover, the “minimal inhibitory concentration (MIC), EF 2041” value in [12] came to 0.5. In addition, the “minimal inhibitory concentration (MIC), SA 446” value in [13] is given as 2. The “minimal inhibitory concentration (MIC), SA X400” value in assay [14] amounted to 2. Further, the “minimal inhibitory concentration (MIC), SH 105” value in [15] is recorded as 4. Besides, the “minimal inhibitory concentration (MIC), SA 1199A” value in assay [16] is given as “no growth”. Moreover, the “minimal inhibitory concentration (MIC), SA X778” value in assay [17] was 2. The “minimal inhibitory concentration (MIC), HFRD” value in [18] is recorded as over 64. Moreover, the “minimal inhibitory concentration (MIC), SA 491” value in [19] was found to be 1.

Regarding `CC1OC(OC2c3ccc(c(Cl)c3)Oc3cc4cc(c3OC3OC(CO)C(O)C(O)C3OC3CC(C)(NCc5ccc(-c6ccccc6)cc5)C(O)C(C)O3)Oc3ccc(cc3Cl)C(O)C(NC(=O)C(CCCCNC(=O)OC(C)(C)C)NC(=O)OC(C)(C)C)C(=O)NC(CC(N)=O)C(=O)NC4C(=O)NC3C(=O)NC2C(=O)NC(C(=O)O)c2cc(O)cc(O)c2-c2cc3ccc2O)CC(C)(N)C1O` [Example 30, N^1-(N,N′-DIBOC-L-lysine) derivative of N^DISACC-(p-phenylbenzyl)desleucylA82846B], the “minimal inhibitory concentration (MIC), SA S13E” value in [1] was determined as 2. Moreover, the “minimal inhibitory concentration (MIC), Resistant” value in assay [2] was determined as 38. Moreover, the “minimal inhibitory concentration (MIC), SA 489” value in assay [3] was determined as 1. Also, the “minimal inhibitory concentration (MIC), SE 270” value in assay [4] worked out at 1. Further, the “minimal inhibitory concentration (MIC), EF 276” value in assay [5] is on record as 2. Besides, in assay [6], the “minimal inhibitory concentration (MIC), EG 245” value is reported as 2. Further, the “minimal inhibitory concentration (MIC), EF 180” value in the assay with Enterococcus faecium 180 amounted to 8. The “minimal inhibitory concentration (MIC), SH 415” value in assay [7] worked out at 2. Further, the “minimal inhibitory concentration (MIC), SA 1199” value in assay [8] is 2. Also, in the assay on Escherichia coli EC14, the “minimal inhibitory concentration (MIC), EC 14” value is reported as over 64. Besides, in [9], the “minimal inhibitory concentration (MIC), EF 180-1” value is 0.5. For the same compound, the “minimal inhibitory concentration (MIC), SA 447” value in assay [10] came out at 2. Moreover, in [11], the “minimal inhibitory concentration (MIC), Sensitive” value is recorded as 2.3. In addition, in assay [12], the “minimal inhibitory concentration (MIC), EF 2041” value amounted to 1. Besides, the “minimal inhibitory concentration (MIC), SA 446” value in assay [13] came to 8. Moreover, the “minimal inhibitory concentration (MIC), SA X400” value in assay [14] was found to be 2. Further, the “minimal inhibitory concentration (MIC), SH 105” value in [15] worked out at 2. Moreover, in assay [16], the “minimal inhibitory concentration (MIC), SA 1199A” value is 1. The “minimal inhibitory concentration (MIC), SA X778” value in assay [17] came to 1. The “minimal inhibitory concentration (MIC), HFRD” value in [18] is recorded as over 64. Moreover, the “minimal inhibitory concentration (MIC), SA 491” value in assay [19] was 2.

`CC(C)CCC(=O)NC1C(=O)NC(CC(N)=O)C(=O)NC2C(=O)NC3C(=O)NC(C(=O)NC(C(=O)O)c4cc(O)cc(O)c4-c4cc3ccc4O)C(OC3CC(C)(N)C(O)C(C)O3)c3ccc(c(Cl)c3)Oc3cc2cc(c3OC2OC(CO)C(O)C(O)C2OC2CC(C)(NCc3ccc(-c4ccc(Cl)cc4)cc3)C(O)C(C)O2)Oc2ccc(cc2Cl)C1O` (stereo not drawn) [Example 7, N^1-(4-methyl-n-pentanoyl)-N^DISACC-[p-(p-chlorophenyl)benzyl]desleucylA82846B]: in assay [1], the “minimal inhibitory concentration (MIC), SA S13E” value was 0.5. Also, the “minimal inhibitory concentration (MIC), Resistant” value in assay [2] turned out to be 3.4. The “minimal inhibitory concentration (MIC), SA 489” value in [3] was determined as 1. For the same compound, the “minimal inhibitory concentration (MIC), SE 270” value in [4] is recorded as “≦.06”. For the same compound, the “minimal inhibitory concentration (MIC), EF 276” value in assay [5] is “≦.06”. Moreover, the “minimal inhibitory concentration (MIC), EG 245” value in assay [6] is “≦.06”. Besides, the “minimal inhibitory concentration (MIC), EF 180” value in the assay on Enterococcus faecium 180 came to 1. In [7], the “minimal inhibitory concentration (MIC), SH 415” value is recorded as 1. Moreover, the “minimal inhibitory concentration (MIC), SA 1199” value in assay [8] came out at 1. In addition, the “minimal inhibitory concentration (MIC), EC 14” value in the assay with Escherichia coli EC14 is over 64. The “minimal inhibitory concentration (MIC), EF 180-1” value in [9] is listed as “≦.06”. Besides, the “minimal inhibitory concentration (MIC), SA 447” value in [10] turned out to be 0.5. In assay [11], the “minimal inhibitory concentration (MIC), Sensitive” value is 0.22. In addition, the “minimal inhibitory concentration (MIC), EF 2041” value in assay [12] is given as “≦.06”. The “minimal inhibitory concentration (MIC), SA 446” value in [13] was 0.5. Further, the “minimal inhibitory concentration (MIC), SA X400” value in [14] came out at 0.5. In addition, in assay [15], the “minimal inhibitory concentration (MIC), SH 105” value is “≦.06”. Besides, in assay [16], the “minimal inhibitory concentration (MIC), SA 1199A” value is recorded as “≦.06”. Also, in assay [17], the “minimal inhibitory concentration (MIC), SA X778” value is 1. In assay [18], the “minimal inhibitory concentration (MIC), HFRD” value is listed as 64. Further, the “minimal inhibitory concentration (MIC), SA 491” value in assay [19] was 0.125.
